Legend:
[1] = biological target: T1, 5-hydroxytryptamine receptor 2B (Homo sapiens, UniProt P41595); assay: Displacement of [125I]-DOI from 5-HT2B receptor (unknown origin) expressed in HEK293 cell membrane incubated for 1 hr by scintillation counter analysis; type: cell membranes
[2] = biological target: T2, 5-hydroxytryptamine receptor 2A (Homo sapiens, UniProt P28223); assay: Displacement of [125I]-DOI from 5-HT2A receptor (unknown origin) expressed in HEK293 cell membrane incubated for 1 hr by scintillation counter analysis; type: cell membranes
[3] = biological target: T3, 5-hydroxytryptamine receptor 2C (Homo sapiens, UniProt P28335)
T3 sequence (P28335 whole entry): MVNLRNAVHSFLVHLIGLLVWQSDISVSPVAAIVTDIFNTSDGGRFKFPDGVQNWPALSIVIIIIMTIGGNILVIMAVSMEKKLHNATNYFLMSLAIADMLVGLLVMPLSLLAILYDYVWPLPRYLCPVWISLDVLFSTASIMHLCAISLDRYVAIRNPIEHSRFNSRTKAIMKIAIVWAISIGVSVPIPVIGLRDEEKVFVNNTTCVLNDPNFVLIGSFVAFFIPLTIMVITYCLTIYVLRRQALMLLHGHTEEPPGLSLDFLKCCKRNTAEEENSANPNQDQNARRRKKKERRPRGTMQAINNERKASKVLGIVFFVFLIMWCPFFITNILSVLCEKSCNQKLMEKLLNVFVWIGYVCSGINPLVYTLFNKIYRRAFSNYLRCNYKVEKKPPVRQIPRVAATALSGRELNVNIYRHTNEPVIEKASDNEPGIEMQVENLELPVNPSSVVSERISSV

[4] = biological target: T1, 5-hydroxytryptamine receptor 2B; assay: Displacement of [125I]-DOI from 5-HT2B receptor (unknown origin) expressed in HEK293 cell membrane assessed as inhibition constant incubated for 1 hr by scintillation counter analysis; type: cell membranes
[5] = biological target: T2, 5-hydroxytryptamine receptor 2A; assay: Displacement of [125I]-DOI from 5-HT2A receptor (unknown origin) expressed in HEK293 cell membrane assessed as inhibition constant incubated for 1 hr by scintillation counter analysis; type: cell membranes
[6] = biological target: T3, 5-hydroxytryptamine receptor 2C; remark: listed apart in the source
Rattus norvegicus [7] = assay: Hypophagic effect in fasted male Sprague-Dawley rat assessed as inhibition of food intake at 10 mg/kg, po measured after 1 hr relative to control; type: functional; details: for inhibition (INH): 10 mg/kg; for inhibition in vivo at 10 mg/kg: Rattus norvegicus, Sprague-Dawley, po
[8] = Drug concentration in plasma of fasted male Sprague-Dawley rat assessed as inhibition of food intake at 10 mg/kg, po measured after 1 hr relative to control; type: organism-based
[9] = Drug concentration in brain of fasted male Sprague-Dawley rat assessed as inhibition of food intake at 10 mg/kg, po measured after 1 hr relative to control; type: organism-based; details: read-out: Ct
Rattus norvegicus [10] = assay: Hypophagic effect in fasted male Sprague-Dawley rat assessed as inhibition of food intake at 5 mg/kg, po measured after 1 hr relative to control; type: functional
Rattus norvegicus [11] = assay: Hypophagic effect in fasted male Sprague-Dawley rat assessed as effective dose administered orally measured after 1 hr relative to control; type: functional; details: route po

T2 sequence (P28223 whole entry): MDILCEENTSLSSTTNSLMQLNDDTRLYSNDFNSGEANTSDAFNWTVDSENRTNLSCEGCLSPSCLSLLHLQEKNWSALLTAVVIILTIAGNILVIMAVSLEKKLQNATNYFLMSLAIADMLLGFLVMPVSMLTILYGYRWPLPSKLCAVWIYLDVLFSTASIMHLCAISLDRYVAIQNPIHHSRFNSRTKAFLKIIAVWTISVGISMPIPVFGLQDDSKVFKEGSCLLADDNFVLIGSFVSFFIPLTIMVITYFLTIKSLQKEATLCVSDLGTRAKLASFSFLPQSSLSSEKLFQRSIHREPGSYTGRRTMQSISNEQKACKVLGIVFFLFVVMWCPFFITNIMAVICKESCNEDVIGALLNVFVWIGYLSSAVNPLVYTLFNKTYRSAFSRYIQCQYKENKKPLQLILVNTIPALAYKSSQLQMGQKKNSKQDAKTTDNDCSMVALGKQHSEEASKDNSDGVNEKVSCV
T1 sequence (P41595 whole entry): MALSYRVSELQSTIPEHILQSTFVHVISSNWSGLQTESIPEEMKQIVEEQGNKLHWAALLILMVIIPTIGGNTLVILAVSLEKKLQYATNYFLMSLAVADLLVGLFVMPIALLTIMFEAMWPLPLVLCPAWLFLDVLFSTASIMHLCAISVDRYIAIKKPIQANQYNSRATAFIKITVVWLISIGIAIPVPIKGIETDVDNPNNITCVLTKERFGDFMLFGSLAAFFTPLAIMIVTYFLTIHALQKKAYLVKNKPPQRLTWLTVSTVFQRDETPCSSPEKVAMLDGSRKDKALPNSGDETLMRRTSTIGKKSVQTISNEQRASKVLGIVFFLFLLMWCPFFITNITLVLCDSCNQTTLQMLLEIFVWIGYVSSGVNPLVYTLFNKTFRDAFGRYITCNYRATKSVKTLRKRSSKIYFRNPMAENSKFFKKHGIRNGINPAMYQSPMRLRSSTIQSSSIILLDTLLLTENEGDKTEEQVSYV

| SMILES | EC50 [1] [nM] | EC50 [2] [nM] | EC50 [3] [nM] | Ki [4] [nM] | Ki [5] [nM] | Ki [6] [nM] | concentration at 1 h [8] [ng/mL] | concentration at 1 h [9] [ng/g] | inhibition (INH) (Rattus norvegicus [7]) [%] | inhibition in vivo at 10 mg/kg (Rattus norvegicus [7]) [%] | inhibition in vivo at 5 mg/kg (Rattus norvegicus [10]) [%] | ED50 (Rattus norvegicus [11]) [mg/kg] |
| --- | --- | --- | --- | --- | --- | --- | --- | --- | --- | --- | --- | --- |
| COCCNC(=O)c1ccc2c3c1C(CC(F)(F)F)CN3CCNC2 (racemic) | – | – | 17 | > 50000 | 217 | 38 | – | – | – | – | – | – |
| CNC(=O)c1ccc2c3c1C(CC(F)(F)F)CN3CCNC2 (single isomer, unassigned; (-)) | – | – | – | – | – | – | – | – | 0 | – | – | – |
| CCC1CN2CCNCc3ccc(C(=O)NC)c1c32 (single isomer, unassigned; (-)) | – | – | – | – | – | – | – | – | 0 | – | – | – |
| CNC(=O)c1ccc2c3c1C(CC(F)(F)F)CN3CCNC2 (single isomer, unassigned; (+)) | – | – | – | – | – | – | 1660 | 440 | 83 | – | 41 | 5.2 |
| CCC1CN2CCNCc3ccc(C(=O)NC)c1c32 (single isomer, unassigned; (+)) | – | – | – | – | – | – | 1010 | 222 | 63 | – | – | 6.4 |
| CCC1CN2CCNCc3ccc(C(=O)NCC(F)F)c1c32 (single isomer, unassigned; (+)) | – | – | – | – | – | – | 866 | 454 | – | – | 27 | > 5 |
| CCC1CN2CCNCc3ccc(C(=O)NCCF)c1c32 (racemic) | – | – | 80 | > 50000 | 212 | 121 | – | – | – | – | – | – |
| CNC(=O)c1ccc2c3c1C(CC(F)F)CN3CCNC2 (racemic) | – | – | 23 | 804 | 3780 | 30 | – | – | – | – | – | – |
| O=C(NCC(F)F)c1ccc2c3c1C(CC(F)(F)F)CN3CCNC2 (racemic) | – | – | 14 | > 50000 | 2680 | 25 | – | – | – | – | – | – |
| CCNC(=O)c1ccc2c3c1C(CC(F)(F)F)CN3CCNC2 (racemic) | – | – | 45 | 12400 | 1620 | 72 | – | – | – | – | – | – |
| O=C(NCC(F)(F)F)c1ccc2c3c1C(CC(F)(F)F)CN3CCNC2 (racemic) | – | – | 178 | 5150 | 7330 | 91 | – | – | – | – | – | – |
| O=C(NCCOc1ccccc1)c1ccc2c3c1CCN3CCNC2 | > 50000 | > 50000 | 21 | 1670 | 2630 | 18 | – | – | – | – | – | – |
| COCC(C)NC(=O)c1ccc2c3c1CCN3CCNC2 (configuration not stated) | > 50000 | > 50000 | 7400 | > 50000 | > 30000 | 3070 | – | – | – | – | – | – |
| CCCNC(=O)c1ccc2c3c1C(CC(F)(F)F)CN3CCNC2 (single isomer, unassigned; (+)) | – | – | – | – | – | – | – | – | – | 53 | – | – |

Now from value to compound, other results behind:

| EC50 [1] [nM] | EC50 [2] [nM] | EC50 [3] [nM] | Ki [4] [nM] | Ki [5] [nM] | Ki [6] [nM] | concentration at 1 h [8] [ng/mL] | concentration at 1 h [9] [ng/g] | SMILES | inhibition (INH) (Rattus norvegicus [7]) [%] | inhibition in vivo at 10 mg/kg (Rattus norvegicus [7]) [%] | inhibition in vivo at 5 mg/kg (Rattus norvegicus [10]) [%] | ED50 (Rattus norvegicus [11]) [mg/kg] |
| --- | --- | --- | --- | --- | --- | --- | --- | --- | --- | --- | --- | --- |
| > 50000 | > 50000 | > 50000 | – | – | – | – | – | O=C(NCC(F)(F)F)c1ccc2c3c1CCN3CCNC2 | – | – | – | – |
| > 50000 | > 50000 | 430 | > 50000 | > 30000 | 249 | – | – | O=C(NCCF)c1ccc2c3c1CCN3CCNC2 | – | – | – | – |
| > 50000 | > 50000 | > 30000 | – | – | – | – | – | CN(C)C(=O)c1ccc2c3c1CCN3CCNC2 | – | – | – | – |
| > 50000 | > 50000 | 57 | > 50000 | > 30000 | 75 | – | – | CC(C)OCCNC(=O)c1ccc2c3c1CCN3CCNC2 | – | – | – | – |
| > 50000 | > 50000 | 59 | > 50000 | > 30000 | 84 | – | – | CSCCNC(=O)c1ccc2c3c1CCN3CCNC2 | – | – | – | – |
| > 50000 | > 50000 | 820 | 7730 | 830 | 348 | – | – | COC(C)CNC(=O)c1ccc2c3c1CCN3CCNC2 (configuration not stated) | – | – | – | – |
| > 50000 | > 50000 | 33 | 15500 | 6070 | 43 | – | – | CCOCCNC(=O)c1ccc2c3c1CCN3CCNC2 | – | 26 | – | – |
| > 50000 | > 50000 | 400 | – | – | – | – | – | O=C(NCC(F)F)c1ccc2c3c1CCN3CCNC2 | – | – | – | – |
| > 50000 | > 50000 | 5600 | – | – | – | – | – | CNC(=O)c1ccc2c3c1CCCN3CCNC2 | – | – | – | – |
| > 50000 | > 50000 | 33 | 2490 | 18900 | 61 | – | – | O=C(NCCCl)c1ccc2c3c1CCN3CCNC2 | – | – | – | – |
| > 50000 | > 50000 | 3920 | 8760 | > 30000 | 1150 | – | – | CC(C)NC(=O)c1ccc2c3c1CCN3CCNC2 | – | – | – | – |
| > 50000 | > 50000 | 332 | – | – | – | – | – | COCCNC(=O)c1ccc2c3c1CCCN3CCNC2 | – | – | – | – |
| > 50000 | > 50000 | 252 | 8160 | > 30000 | 210 | – | – | CCNC(=O)c1ccc2c3c1CCN3CCNC2 | – | – | – | – |
| > 50000 | > 50000 | > 50000 | > 50000 | > 30000 | 12600 | – | – | CS(=O)(=O)CCNC(=O)c1ccc2c3c1CCN3CCNC2 | – | – | – | – |
| > 50000 | > 50000 | 91 | 11800 | > 30000 | 160 | – | – | CCCCNC(=O)c1ccc2c3c1CCN3CCNC2 | – | – | – | – |
| > 50000 | > 50000 | 400 | 9650 | 21800 | 380 | – | – | O=C(NC1CC1)c1ccc2c3c1CCN3CCNC2 | – | – | – | – |
| > 50000 | > 50000 | 15 | > 50000 | 17800 | 29 | – | – | CCSCCNC(=O)c1ccc2c3c1CCN3CCNC2 | – | – | – | – |
| > 50000 | > 50000 | 193 | > 50000 | > 50000 | 232 | – | – | CCOCCNC(=O)c1ccc2c3c1CCCN3CCNC2 | – | – | – | – |
| > 50000 | > 50000 | 15 | 2510 | 506 | 19 | – | – | CCCOCCNC(=O)c1ccc2c3c1CCN3CCNC2 | – | – | – | – |
| > 50000 | > 50000 | 2700 | – | – | 500 | – | – | NC(=O)c1ccc2c3c1CCN3CCNC2 | – | – | – | – |
| > 50000 | > 50000 | 360 | 17800 | 17800 | 320 | – | – | O=C(NCC1CC1)c1ccc2c3c1CCN3CCNC2 | – | – | – | – |
